Experimental data: patent US12534452B2, “N-(1H-imidazol-2-yl)benzamide compound and pharmaceutical composition comprising the same as active ingredient” (KAINOS MEDICINE, INC., priority 2019, dated 2026)

Biological target: IRAK4 (Homo sapiens (Human), UniProt Q9NWZ3)
Assay: In vitro IRAK4 phosphorylation activity assay
Format: biochemical
Conditions: [γ-33P]-ATP, myelin basic protein substrate, 40 minutes at room temperature; categories
Outline: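 Radiometric filter-binding assay, no compound–kinase preincubation; 8 mM MOPS pH 7.0, 0.2 mM EDTA, 10 mM Mg acetate, 0.33 mg/mL myelin basic protein substrate, [γ-33P]-ATP. Reaction 40 min at room temperature, stopped with phosphoric acid, scintillation counting; IC50 reported in categories.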

Chain of IRAK4 (Q9NWZ3 whole entry): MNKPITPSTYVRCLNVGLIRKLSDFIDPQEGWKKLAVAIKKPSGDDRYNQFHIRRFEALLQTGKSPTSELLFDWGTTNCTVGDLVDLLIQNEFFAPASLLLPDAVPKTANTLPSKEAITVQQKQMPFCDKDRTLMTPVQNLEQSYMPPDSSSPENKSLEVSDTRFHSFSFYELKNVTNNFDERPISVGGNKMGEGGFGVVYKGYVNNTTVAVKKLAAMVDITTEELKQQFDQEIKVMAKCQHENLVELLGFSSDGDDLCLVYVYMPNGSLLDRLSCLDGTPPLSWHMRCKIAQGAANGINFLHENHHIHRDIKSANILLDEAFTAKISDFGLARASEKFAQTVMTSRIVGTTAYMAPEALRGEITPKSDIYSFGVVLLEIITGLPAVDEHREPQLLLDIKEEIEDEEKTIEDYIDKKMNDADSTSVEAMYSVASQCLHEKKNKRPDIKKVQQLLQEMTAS

| IC50 | SMILES |
| --- | --- |
| < 50 nM | CN1CCN(N(C)C(=O)CCCc2cn(-c3ccccc3)c(NC(=O)c3cccc(-c4cnn(C)c4)c3)n2)CC1 [Example 218, N-(4-(4-(methyl(4-methylpiperazin-1-yl)amino)-4-oxobutyl)-1-phenyl-1H-imidazol-2-yl)-3-(1-methyl-1H-pyrazol-4-yl)benzamide] |
| > 100 nM | O=C(CCc1cn(-c2ccccc2)c(NC(=O)c2cncc(-c3cn[nH]c3)c2)n1)Nc1ccccc1 [Example 4, N-(4-(3-oxo-3-(phenylamino)propyl)-1-phenyl-1H-imidazol-2-yl)-5-(1H-pyrazol-4-yl)nicotinamide] |
| < 50 nM | Cn1cc(-c2cccc(C(=O)Nc3nc(CCCC(=O)NCCN4CCCCC4)cn3-c3ccccc3)c2)cn1 [Example 159, 3-(1-methyl-1H-pyrazol-4-yl)-N-(4-(4-oxo-4-((2-(piperidin-1-yl)ethyl)amino)butyl)-1-phenyl-1H-imidazol-2-yl)benzamide] |
| < 50 nM | Nc1ccc(-c2cccc(C(=O)Nc3nc(CCCCCCN4CCCCC4)cn3-c3ccccc3)c2)cn1 [Example 275, 3-(6-aminopyridin-3-yl)-N-(1-phenyl-4-(6-(piperidin-1-yl)hexyl)-1H-imidazol-2-yl)benzamide] |
| < 50 nM | O=C(CCCc1cn(-c2ccccc2)c(NC(=O)c2cccc(-c3cn[nH]c3)c2)n1)Nc1ccc(F)cc1 [Example 64, N-(4-(4-((4-fluorophenyl)amino)-4-oxobutyl)-1-phenyl-1H-imidazol-2-yl)-3-(1H-pyrazol-4-yl)benzamide] |
| < 50 nM | Cn1cc(-c2cccc(C(=O)Nc3nc(CCCC(=O)N4CCC(N5CCCC5)CC4)cn3-c3ccccc3)c2)cn1 [Example 154, 3-(1-methyl-1H-pyrazol-4-yl)-N-(4-(4-oxo-4-(4-(pyrrolidin-1-yl)piperidin-1-yl)butyl)-1-phenyl-1H-imidazol-2-yl)benzamide] |
| > 100 nM | O=C(Nc1nc(CCN2CCCCC2)cn1-c1ccccc1)c1cccc(-c2cn[nH]c2)c1 [Example 104, N-(1-phenyl-4-(2-(piperidin-1-yl)ethyl)-1H-imidazol-2-yl)-3-(1H-pyrazol-4-yl)benzamide] |
| < 50 nM | Cn1cc(-c2cccc(C(=O)Nc3nc(CCCCNC(=O)C4CC4)cn3-c3ccccc3)c2)cn1 [Example 227, N-(4-(4-(cyclopropanecarboxamido)butyl)-1-phenyl-1H-imidazol-2-yl)-3-(1-methyl-1H-pyrazol-4-yl)benzamide] |
| < 50 nM | Cn1cc(-c2cccc(C(=O)Nc3nc(CCCC(=O)N4CC[C@@H](N)C4)cn3-c3ccccc3)c2)cn1 [Example 212, (R)—N-(4-(4-(3-aminopyrrolidin-1-yl)-4-oxobutyl)-1-phenyl-1H-imidazol-2-yl)-3-(1-methyl-1H-pyrazol-4-yl)benzamide] |
| < 50 nM | O=C(O)CCCCCc1cn(-c2ccccc2)c(NC(=O)c2cccc(-c3cn[nH]c3)c2)n1 [Example 92, 6-(2-(3-(1H-pyrazol-4-yl)benzamido)-1-phenyl-1H-imidazol-4-yl)hexanoic acid] |
| < 50 nM | C[C@@H]1CCC[C@H](C)N1C(=O)CCCCc1cn(-c2ccccc2)c(NC(=O)c2cccc(-c3cn[nH]c3)c2)n1 [Example 81, N-(4-(5-((2R,6S)-2,6-dimethylpiperidin-1-yl)-5-oxopentyl)-1-phenyl-1H-imidazol-2-yl)-3-(1H-pyrazol-4-yl)benzamide] |
| > 100 nM | O=C(Nc1nc(CCCCCCN2CCCCC2)cn1-c1ccc(F)cc1F)c1cccc(-c2cn[nH]c2)c1 [Example 302, N-(1-(2,4-difluorophenyl)-4-(6-(piperidin-1-yl)hexyl)-1H-imidazol-2-yl)-3-(1H-pyrazol-4-yl)benzamide] |
| > 100 nM | CNC(=O)Cc1cn(-c2ccccc2)c(NC(=O)c2ccc3[nH]ncc3c2)n1 [Example 49, N-(4-(2-(methylamino)-2-oxoethyl)-1-phenyl-1H-imidazol-2-yl)-1H-indazole-5-carboxamide] |
| > 100 nM | O=C(Nc1nc(CCCCCCN2CCCCC2)cn1-c1ccccc1)c1cccc(-c2ccccn2)c1 [Example 269, N-(1-phenyl-4-(6-(piperidin-1-yl)hexyl)-1H-imidazol-2-yl)-3-(pyridin-2-yl)benzamide] |
| < 50 nM | O=C(Nc1nc(CCCCN2CCCCC2)cn1-c1ccccc1)c1cccc(-c2ccc3[nH]ncc3c2)c1 [Example 256, 3-(1H-indazol-5-yl)-N-(1-phenyl-4-(4-(piperidin-1-yl)butyl)-1H-imidazol-2-yl)benzamide] |
| > 100 nM | CN1CCN(C(=O)CCCCCc2cn(-c3ccccc3)c(NC(=O)c3cccc(-c4ccc5scnc5c4)c3)n2)CC1 [Example 288, 3-(benzo[d]thiazol-5-yl)-N-(4-(6-(4-methylpiperazin-1-yl)-6-oxohexyl)-1-phenyl-1H-imidazol-2-yl)benzamide] |
| < 50 nM | COC[C@@H]1CCCN1NC(=O)CCCCCc1cn(-c2ccccc2)c(NC(=O)c2cccc(-c3cn[nH]c3)c2)n1 [Example 98, (S)—N-(4-(6-((2-(methoxymethyl)pyrrolidin-1-yl)amino)-6-oxohexyl)-1-phenyl-1H-imidazol-2-yl)-3-(1H-pyrazol-4-yl)benzamide] |

| IC50 | SMILES |
| --- | --- |
| > 100 nM | O=C(CCc1cn(-c2ccccc2)c(NC(=O)c2cccc(-c3cnoc3)c2)n1)Nc1ccccc1 [Example 5, 3-(isoxazol-4-yl)-N-(4-(3-oxo-3-(phenylamino)propyl)-1-phenyl-1H-imidazol-2-yl)benzamide] |
| < 50 nM | O=C(CCCc1cn(-c2ccccc2)c(NC(=O)c2cccc(-c3cn[nH]c3)c2)n1)Nc1ccccc1 [Example 52, N-(4-(4-oxo-4-(phenylamino)butyl)-1-phenyl-1H-imidazol-2-yl)-3-(1H-pyrazol-4-yl)benzamide] |
| 50 to 100 nM | CCOC(C)(C)n1cc(-c2cccc(C(=O)Nc3nc(CCCC(=O)NC4CC4)cn3-c3ccccc3)c2)cn1 [Example 73, N-(4-(4-(cyclopropylamino)-4-oxobutyl)-1-phenyl-1H-imidazol-2-yl)-3-(1-(2-ethoxypropan-2-yl)-1H-pyrazol-4-yl)benzamide] |
| < 50 nM | O=C(CCCc1cn(-c2ccccc2)c(NC(=O)c2cccc(-c3cnn(C(F)F)c3)c2)n1)NC1CC1 [Example 235, N-(4-(4-(cyclopropylamino)-4-oxobutyl)-1-phenyl-1H-imidazol-2-yl)-3-(1-(difluoromethyl)-1H-pyrazol-4-yl)benzamide] |
| 50 to 100 nM | CNC(=O)Cc1cn(-c2ccccc2)c(NC(=O)c2cccc(-c3ccc4[nH]ncc4c3)c2)n1 [Example 243, 3-(1H-indazol-5-yl)-N-(4-(2-(methylamino)-2-oxoethyl)-1-phenyl-1H-imidazol-2-yl)benzamide] |
| < 50 nM | Cn1cc(-c2cccc(C(=O)Nc3nc(CCCCN4CCCCC4)cn3-c3ccccc3)c2)cn1 [Example 219, 3-(1-methyl-1H-pyrazol-4-yl)-N-(1-phenyl-4-(4-(piperidin-1-yl)butyl)-1H-imidazol-2-yl)benzamide] |
| < 50 nM | COC[C@H]1CCCN1NC(=O)CCCCc1cn(-c2ccccc2)c(NC(=O)c2cccc(-c3cn[nH]c3)c2)n1 [Example 85, (R)—N-(4-(5-((2-(methoxymethyl)pyrrolidin-1-yl)amino)-5-oxopentyl)-1-phenyl-1H-imidazol-2-yl)-3-(1H-pyrazol-4-yl)benzamide] |
| < 50 nM | Cn1cc(-c2cccc(C(=O)Nc3nc(CCCC(=O)N4CCCCC4)cn3-c3ccccc3)c2)cn1 [Example 142, 3-(1-methyl-TH-pyrazol-4-yl)-N-(4-(4-oxo-4-(piperidin-1-yl)butyl)-1-phenyl-1H-imidazol-2-yl)benzamide] |
| < 50 nM | COC(=O)CCCCc1cn(-c2ccccc2)c(NC(=O)c2cccc(-c3cn[nH]c3)c2)n1 [Example 77, methyl 5-(2-(3-(1H-pyrazol-4-yl)benzamido)-1-phenyl-1H-imidazol-4-yl)pentanoate] |
| < 50 nM | Cn1cc(-c2cccc(C(=O)Nc3nc(CCCCC(=O)N4CCNCC4)cn3-c3ccccc3)c2)cn1 [Example 204, 3-(1-methyl-1H-pyrazol-4-yl)-N-(4-(5-oxo-5-(piperazin-1-yl)pentyl)-1-phenyl-1H-imidazol-2-yl)benzamide] |
| 50 to 100 nM | Cn1cc(-c2cccc(C(=O)Nc3nc(CCC(=O)N4CCNCC4)cn3-c3ccccc3)c2)cn1 [Example 203, 3-(1-methyl-1H-pyrazol-4-yl)-N-(4-(3-oxo-3-(piperazin-1-yl)propyl)-1-phenyl-1H-imidazol-2-yl)benzamide] |
| < 50 nM | O=C(CCCCCc1cn(-c2ccccc2)c(NC(=O)c2cccc(-c3cn[nH]c3)c2)n1)Nc1ccccc1 [Example 90, N-(4-(6-oxo-6-(phenylamino)hexyl)-1-phenyl-1H-imidazol-2-yl)-3-(1H-pyrazol-4-yl)benzamide] |
| < 50 nM | C[C@@H]1CC[C@@H](C)N1C(=O)CCc1cn(-c2ccccc2)c(NC(=O)c2cccc(-c3cn[nH]c3)c2)n1 [Example 29, N-(4-(3-((2R,5R)-2,5-dimethylpyrrolidin-1-yl)-3-oxopropyl)-1-phenyl-1H-imidazol-2-yl)-3-(1H-pyrazol-4-yl)benzamide] |
| < 50 nM | O=C(Nc1nc(CCCCCCNC(=O)C2CC2)cn1-c1ccccc1)c1cccc(-c2ccc3[nH]ncc3c2)c1 [Example 262, N-(4-(6-(cyclopropanecarboxamido)hexyl)-1-phenyl-1H-imidazol-2-yl)-3-(1H-indazol-5-yl)benzamide] |
| < 50 nM | Cn1cc(-c2cccc(C(=O)Nc3nc(CCCC(=O)N4CCN(c5ccccc5)CC4)cn3-c3ccccc3)c2)cn1 [Example 188, 3-(1-methyl-1H-pyrazol-4-yl)-N-(4-(4-oxo-4-(4-phenylpiperazin-1-yl)butyl)-1-phenyl-1H-imidazol-2-yl)benzamide] |
| < 50 nM | CN1CCN(C(=O)CCCc2cn(-c3ccccc3)c(NC(=O)c3cccc(-c4cn[nH]c4F)c3)n2)CC1 [Example 230, 3-(5-fluoro-1H-pyrazol-4-yl)-N-(4-(4-(4-methylpiperazin-1-yl)-4-oxobutyl)-1-phenyl-1H-imidazol-2-yl)benzamide] |
